Source: US6207656A, “Vitamin D analogues and their neuronal effects” (Cephalon, Inc., priority 1998, dated 2001)

Experiments:
[1] = test system: hippocampal ChAT; assay: Fimbria fornix lesion model, hippocampal ChAT activity; type: in vivo, rat; details: oral gavage daily 14 days, FIGS. 4 to 8; * p<0.05 vs vehicle-treated lesioned controls
Source text: The fimbria fornix lesion model is an established protocol for assessing cholinergic neuronal survival in the basal forebrain. […] Contained within the region of the brain 10 are cholinergic neurons 16. A healthy cholinergic neuron has a cell body 18, and one or more axons 20. Each of the axons 20 have a free end, referred to as a terminal 22, that extends into the hippocampus 14. In the fimbria fornix lesion model, damaged cholinergic neurons 24 are produced by transecting a portion of the axons 20 at a location 26 between the hippocampus 14 and the cell body 18. As a result of this transection, damaged cell bodies 28 are produced that no longer have cholinergic axons 30 and terminals 32. These damaged cell bodies 28, also lose cholinergic cell body markers 34 and stop producing ChAT. The fimbria fornix lesion model is used to study methods of restoring ChAT production, such as through stimulating increased production of ChAT in the healthy cholinergic neurons, and/or through restoring normal functioning of the damaged cholinergic neurons 24.
For the studies described herein, animals were anesthetized with pentobarbital and placed in a stereotaxic apparatus. The skull was opened on the left side, a knife was positioned 1.2 mm posterior to bregma and 0.6 mm lateral to the midline. The knife was lowered to 4.5 mm below the dura into the brain and moved laterally 2 mm partially transecting the fimbria fornix. After 14 days of administration of the test compounds by oral gavage, the hippocampus was removed and homogenized.
The hippocampal ChAT activity is expressed as a percentage of the hippocampal ChAT activity of the […] control side (i.e., lesion control) in FIGS. 4 to 8.

[2] = test system: ChAT producing cholinergic cells; assay: Fimbria fornix lesion model, cholinergic cell number (ChAT positive septal neurons); type: in vivo, rat
Experimental: Fimbria fornix lesioned animals treated orally with Compound (A) (n=10) or vehicle (n=10) were assessed using acetyl cholinesterase staining of both the lesion area and hippocampal formation. Animals received either Compound (A) (1 μg/day) or vehicle via oral gavage (14 days). […] Neurol. 284:187 (1989).
Coronal sections were cut at […] with a cryostat and collected throughout the medial septum. Every fourth section was processed for the visualization of ChAT positive neurons. Approximately 12 sections were assessed per brain. Cholinergic cells were counted and expressed as a ratio of lesioned to unlesioned control side. […] The results, presented in FIG. 9, indicate that lesioned animals treated with Compound (A) have an approximate 30% increase in the number of cholinergic cells as compared to vehicle treated lesioned animals.

[3] = test system: GDNF mRNA; assay: Induction of GDNF mRNA expression in primates; type: in vivo, monkey
Experimental: (§1) Twelve monkeys, ranging in weight from 2.0 Kg to 4.7 Kg, were divided into three groups of 4 animals each: the vehicle group (i.e., control), group dosed with 10 μg/kg/day, and group dosed with 30 μg/kg/clay. The monkeys were dosed orally for 8 days with Compound (A) and were sacrificed 5 hours after the last dosing. Brain regions were dissected and quick frozen. The dissected septi were divided into 3 preparations and two of the three regions of septum were analyzed. Total RNA was prepared and reverse transcribed and gene expression was assessed using polymerase chain reaction by the following procedure.
(§2) Total RNA was prepared by homogenizing sections of tissue in 750 μl RNAzolB™ (Biotecx Laboratories, Houston, Tex.) using a homogenizer (Tekmar, Germany) until fully homogenized and then 250 μl RNAzilB™ was added. RNA was prepared as recommended by the manufacturer (Biotecx Laboratories). […] Concentration of RNA was measured spectrophotometrically and the quality of RNA was visualized on a nondenaturing agarose gel. […]
(§3) An average of 4 PCR assays (two assays for each gene for two cDNA sets) were used in determining the induction of mRNA expression. To assure that PCR assays were within the linear range of the reaction, the linear range for each gene and each cDNA preparation was determined using serial dilutions of cDNAs. […]

[4] = test system: NRT-like mRNA; assay: Induction of NRT-like mRNA expression in rats; type: in vivo, Sprague Dawley rats; details: 0.3, 1.0 and 3.0 μg/kg oral, 8 days; septum (FIG. 1)
Experimental: Young adult male Sprague Dawley rats (250-350 g) were administered Compound (A), Compound (E), or a vehicle (80% propylene glycol (human formulation grade; Spectrum Quality Products, Inc., Gardena, Calif., catalog #PR130-55003) and 20% phosphate buffer, pH 9.2) at doses ranging from 0.1 to 5.5 μg/kg daily by oral gavage for eight days. Five hours after the last dose, the animals were sacrificed by decapitation. Each brain was quickly removed and chilled in ice-cold saline. The brain was cut into 2 mm thick coronal sections. Portions of the hippocampus, encompassing the CA1 region, and the medial septum were removed by punching 2 mm^3 sections using a calibrated tissue punch. Punched sections were immediately frozen on dry ice and then stored at -70° C. RNA was prepared from dissected tissue pieces.
Punches of tissue were homogenized in […] RNAzolB™ (Bioteex Laboratories, Houston, Tex.) using a homogenizer (Tekmar, Germany) until fully homogenized and then 250 μl RNAzilB™ was added. Typically, punches from the corresponding regions of brains of 2 to 3 animals were combined together. RNA was prepared as recommended by the manufacturer (Biotecx Laboratories). […] Concentration of RNA was measured spectrophotometrically and the quality of RNA was visualized on a nondenaturing agarose gel. […]

[5] = test system: NGF mRNA; assay: Induction of NGF mRNA expression in primates; type: in vivo, monkey
Experimental: as §1, §2, §3

[6] = Serum calcium in primates; type: in vivo, monkey; details: 10 and 30 μg/kg/day oral, 8 days

For C=C1/C(=C\C=C2/CCC[C@]3(C)[C@@H]([C@@H](C)[C@@H](C#CCC(O)(CC)CC)OCC)CC[C@@H]23)C[C@@H](O)C[C@@H]1O [Compound (A), 1(S),3(R)-dihydroxy-20(R)-(1-ethoxy-5-ethyl-5-hydroxy-2-heptyn-1-yl)-9,10-seco-pregna-5(Z),7(E),10(19)-triene], the “hippocampal ChAT activity vs lesioned controls” value [1] was “significant increase in CHAT activity”, the “increase in number of cholinergic cells vs vehicle treated lesioned animals” value ([2]; 1 μg/day oral gavage, 14 days (FIG. 9)) was ~30% and the “septal neurons expressing ChAT” value ([2]; FIG. 9, partially fimbria fornix lesioned animals vs vehicle) was “increase in septal neurons expressing ChAT”. For the same compound, the “production of GDNF mRNA” value ([3]; 10 and 30 μg/kg/day oral, 8 days, primate septum (FIG. 14B)) was “facilitated the production of NGF mRNA and GDNF mRNA”, the “dosage of greatest GDNF mRNA production” value ([3]; 10 vs 30 μg/kg/day oral) was “greatest at a dosage of 10 μg/kg/day” and the “production of NRT-like mRNA” value [4] was “facilitated the production of NRT-like mRNA”. The “production of NGF mRNA” value ([5]; 10 and 30 μg/kg/day oral, 8 days, primate septum (FIG. 14A)) was “facilitated the production of NGF mRNA”, the “dosage of greatest NGF mRNA production” value ([5]; 10 vs 30 μg/kg/day oral) was “greatest at a dosage of 10 μg/kg/day” and the serum calcium levels [6] was “did not increase serum calcium levels and were not hypercalcemic doses”.
